The first test concerns the target human MGL from HeLa cells (Homo sapiens (Human), UniProt Q99685). Description: MGL in vitro activity assay ([glycerol-1,3-3H]-oleoyl glycerol cleavage, activated carbon filter). Format: biochemical.
Conditions: not given
As to the method: The assay consists of combining endogenously expressed MGL from HeLa cells with test compounds, adding[glycerol-1,3-^3H]-oleoyl glycerol, incubating for one hour, and then measuring the amount of cleaved[1,3-^3H]-glycerol that passes through an activated carbon filter. The amount of cleaved, tritiated glycerol passing through the carbon filter is proportional to the activity of the MGL enzyme in a particular well/test condition.
Standard conditions for this assay combine 300 nM [Glycerol-1,3-^3H]-oleoyl glycerol with human MGL from HeLa cells and test compounds for one hour, after which the reaction is filtered through activated carbon and tritium is measured in the flow through. […] MGL is the predominant hydrolase in HeLa cells/cell homogenates.
Chain of human MGL from HeLa cells (Q99685 whole entry): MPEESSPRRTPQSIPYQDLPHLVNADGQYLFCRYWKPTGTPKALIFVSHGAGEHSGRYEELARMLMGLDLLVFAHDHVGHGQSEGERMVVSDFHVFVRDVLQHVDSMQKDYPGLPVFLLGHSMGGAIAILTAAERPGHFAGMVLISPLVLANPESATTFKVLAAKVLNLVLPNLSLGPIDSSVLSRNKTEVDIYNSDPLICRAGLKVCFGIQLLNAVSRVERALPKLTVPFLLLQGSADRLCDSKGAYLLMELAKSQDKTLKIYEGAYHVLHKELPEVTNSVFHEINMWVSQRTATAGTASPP
As usually defined, the IC50 is the point on the concentration scale where inhibition reaches its midpoint. Compound `O=C1N[C@]2(CO1)C[C@H](C(=O)N1CCC3(c4cccc(OC(F)(F)F)c4)CC3C1)C2` (mixture of isomers) [Example 49, (rac)-(2s,4s)-2-(6-(3-(Trifluoromethoxy)phenyl)-3-azabicyclo[4.1.0]heptane-3-carbonyl)-7-oxa-5-azaspiro[3.4]octan-6-one] registered an IC50 of 1.6 nM.

Consider `Cc1ccc(C23CCN(C(=O)[C@H]4C[C@]5(COC(=O)N5)C4)CC2C3)cc1OC(F)(F)F` (mixture of isomers) [Example 75, (rac)-(2s,4s)-2-(6-(4-Methyl-3-(trifluoromethoxy)phenyl)-3-azabicyclo[4.1.0]heptane-3-carbonyl)-7-oxa-5-azaspiro[3.4]octan-6-one], for which the IC50 stood at 0.34 nM.

The same test, now with this note: 300 nM [Glycerol-1,3-3H]-oleoyl glycerol, endogenously expressed MGL from HeLa cells, one hour incubation; read-out: MGL IC50.
For `Cc1cc(C23CC2CN(C(=O)[C@H]2C[C@]4(COC(=O)N4)C2)C3)ccc1C(F)(F)F` (mixture of isomers) [Example 36, (rac)-(2s,4s)-2-(1-(3-Methyl-4-(trifluoromethyl)phenyl)-3-azabicyclo[3.1.0]hexane-3-carbonyl)-7-oxa-5-azaspiro[3.4]octan-6-one], the IC50 was 3.2 nM.

As for `Cc1ccc(C23CC2CN(C(=O)[C@H]2C[C@]4(COC(=O)N4)C2)C3)cc1F` (mixture of isomers) [Example 37, (rac)-(2s,4s)-2-(1-(3-Fluoro-4-methylphenyl)-3-azabicyclo[3.1.0]hexane-3-carbonyl)-7-oxa-5-azaspiro[3.4]octan-6-one], the IC50 amounted to 10 nM.

For the compound `O=C1N[C@]2(CO1)C[C@H](C(=O)N1CCC3(c4ccccc4)CC3C1)C2` (mixture of isomers) [Example 39, (rac)-(2s,4s)-2-(6-Phenyl-3-azabicyclo[4.1.0]heptane-3-carbonyl)-7-oxa-5-azaspiro[3.4]octan-6-one], the IC50 was found to be 20 nM.

Consider `Cc1cccc(C23CCN(C(=O)[C@H]4C[C@]5(COC(=O)N5)C4)CC2C3)c1` (mixture of isomers) [Example 43, (rac)-(2s,4s)-2-(6-(m-Tolyl)-3-azabicyclo[4.1.0]heptane-3-carbonyl)-7-oxa-5-azaspiro[3.4]octan-6-one], for which the concentration for half-maximal inhibition (IC50) was 8.2 nM.

On to `Cc1ccc(C23CCN(C(=O)[C@H]4C[C@]5(COC(=O)N5)C4)CC2C3)cc1F` (mixture of isomers) [Example 46, (rac)-(2s,4s)-2-(6-(3-Fluoro-4-methylphenyl)-3-azabicyclo[4.1.0]heptane-3-carbonyl)-7-oxa-5-azaspiro[3.4]octan-6-one], for which the concentration for half-maximal inhibition (IC50) is 3.7 nM.

`O=C1CC[C@]2(C[C@H](C(=O)N3CCC4(c5cccc(OC(F)(F)F)c5)CC4C3)C2)N1` (mixture of isomers) [Example 52, (rac)-(2r,4s)-2-(6-(3-(Trifluoromethoxy)phenyl)-3-azabicyclo[4.1.0]heptane-3-carbonyl)-5-azaspiro[3.4]octan-6-one]: the 50% inhibitory concentration (IC50) is 4.8 nM.

For the compound `O=C1N[C@]2(CO1)C[C@H](C(=O)N1CCC3(c4ccc(OC(F)(F)F)cc4)CC3C1)C2` (mixture of isomers) [Example 54, (rac)-(2s,4s)-2-(6-(4-(Trifluoromethoxy)phenyl)-3-azabicyclo[4.1.0]heptane-3-carbonyl)-7-oxa-5-azaspiro[3.4]octan-6-one], the half-inhibitory concentration (IC50) worked out at 2.5 nM.

`O=C1CC[C@]2(C[C@H](C(=O)N3CCC4(c5ccc(OC(F)(F)F)cc5)CC4C3)C2)N1` (mixture of isomers) [Example 55, (rac)-(2r,4s)-2-(6-(4-(Trifluoromethoxy)phenyl)-3-azabicyclo[4.1.0]heptane-3-carbonyl)-5-azaspiro[3.4]octan-6-one]: the IC50 was found to be 10 nM.

On to `Cc1ccc(C23CCN(C(=O)[C@H]4C[C@]5(COC(=O)N5)C4)CC2C3)cc1` (mixture of isomers) [Example 56, (rac)-(2s,4s)-2-(6-(p-Tolyl)-3-azabicyclo[4.1.0]heptane-3-carbonyl)-7-oxa-5-azaspiro[3.4]octan-6-one], for which the IC50 amounted to 7.7 nM.

Consider `O=C1N[C@]2(CO1)C[C@H](C(=O)N1CCC3(c4cccc(C(F)(F)F)c4)CC3C1)C2` (mixture of isomers) [Example 57, (rac)-(2s,4s)-2-(6-(3-(Trifluoromethyl)phenyl)-3-azabicyclo[4.1.0]heptane-3-carbonyl)-7-oxa-5-azaspiro[3.4]octan-6-one], for which the 50% inhibitory concentration (IC50) stood at 1.9 nM.

As for `CC(C)(C)c1cccc(C23CCN(C(=O)[C@H]4C[C@]5(COC(=O)N5)C4)CC2C3)c1` (mixture of isomers) [Example 60, (rac)-(2s,4s)-2-(6-(3-(tert-Butyl)phenyl)-3-azabicyclo[4.1.0]heptane-3-carbonyl)-7-oxa-5-azaspiro[3.4]octan-6-one], the IC50 was found to be 0.0072 nM.

For `CC(C)(C)c1cccc(C23CCN(C(=O)[C@H]4C[C@]5(CCC(=O)N5)C4)CC2C3)c1` (mixture of isomers) [Example 61, (rac)-(2r,4s)-2-(6-(3-(tert-Butyl)phenyl)-3-azabicyclo[4.1.0]heptane-3-carbonyl)-5-azaspiro[3.4]octan-6-one], the IC50 stood at 0.25 nM.

In the case of `CC(C)(C)c1ccc(C23CCN(C(=O)[C@H]4C[C@]5(CCC(=O)N5)C4)CC2C3)cc1` (mixture of isomers) [Example 63, (rac)-(2r,4s)-2-(6-(4-(tert-Butyl)phenyl)-3-azabicyclo[4.1.0]heptane-3-carbonyl)-5-azaspiro[3.4]octan-6-one], the half-inhibitory concentration (IC50) was determined as 0.41 nM.

Regarding `O=C1N[C@]2(CO1)C[C@H](C(=O)N1CCC3(c4cccc(C5CC5)c4)CC3C1)C2` (mixture of isomers) [Example 64, (rac)-(2s,4s)-2-(6-(3-Cyclopropylphenyl)-3-azabicyclo[4.1.0]heptane-3-carbonyl)-7-oxa-5-azaspiro[3.4]octan-6-one], the IC50 came to 0.65 nM.

Regarding `O=C1CC[C@]2(C[C@H](C(=O)N3CCC4(c5cccc(C6CC6)c5)CC4C3)C2)N1` (mixture of isomers) [Example 65, (rac)-(2r,4s)-2-(6-(3-Cyclopropylphenyl)-3-azabicyclo[4.1.0]heptane-3-carbonyl)-5-azaspiro[3.4]octan-6-one], the IC50 turned out to be 4 nM.

For the compound `O=C1N[C@]2(CO1)C[C@H](C(=O)N1CCC3(c4ccc(C5CC5)cc4)CC3C1)C2` (mixture of isomers) [Example 66, (rac)-(2s,4s)-2-(6-(4-Cyclopropylphenyl)-3-azabicyclo[4.1.0]heptane-3-carbonyl)-7-oxa-5-azaspiro[3.4]octan-6-one], the IC50 amounted to 0.69 nM.

For `Cc1ccc(C23CCN(C(=O)[C@H]4C[C@]5(CCC(=O)N5)C4)CC2C3)cc1Cl` (mixture of isomers) [Example 68, (rac)-(2r,4s)-2-(6-(3-Chloro-4-methylphenyl)-3-azabicyclo[4.1.0]heptane-3-carbonyl)-5-azaspiro[3.4]octan-6-one], the 50% inhibitory concentration (IC50) amounted to 5.6 nM.

As for `CC1(c2ccc(C34CCN(C(=O)[C@H]5C[C@]6(CCC(=O)N6)C5)CC3C4)cc2)CC1` (mixture of isomers) [Example 70, (rac)-(2r,4s)-2-(6-(4-(1-Methylcyclopropyl)phenyl)-3-azabicyclo[4.1.0]heptane-3-carbonyl)-5-azaspiro[3.4]octan-6-one], the IC50 was 0.52 nM.

`Cc1cc(C2CC2)ccc1C12CCN(C(=O)[C@H]3C[C@]4(COC(=O)N4)C3)CC1C2` (mixture of isomers) [Example 72, (rac)-(2s,4s)-2-(6-(4-Cyclopropyl-2-methylphenyl)-3-azabicyclo[4.1.0]heptane-3-carbonyl)-7-oxa-5-azaspiro[3.4]octan-6-one]: the IC50 was 2.1 nM.

Consider `CC(C)c1cccc(C23CCN(C(=O)[C@H]4C[C@]5(COC(=O)N5)C4)CC2C3)c1` (mixture of isomers) [Example 73, (rac)-(2s,4s)-2-(6-(3-Isopropylphenyl)-3-azabicyclo[4.1.0]heptane-3-carbonyl)-7-oxa-5-azaspiro[3.4]octan-6-one], for which the IC50 worked out at 0.25 nM.

Source of the values: patent US11708359B2, “Monoacylglycerol lipase modulators” (Janssen Pharmaceutica NV, priority 2020, dated 2023).
